According to US11512069B2, “TLR7/8 antagonists and uses thereof” (Merck Patent GmbH, priority 2016, dated 2022):

Biological target: T1, TLR7 (Homo sapiens, UniProt Q9NYK1)
T1 construct: expressed in transfected cells; host or cells: HEK cells carrying TLR7 and an NF-kB reporter read with Steady-Glo
T1 sequence (Q9NYK1 27-1049): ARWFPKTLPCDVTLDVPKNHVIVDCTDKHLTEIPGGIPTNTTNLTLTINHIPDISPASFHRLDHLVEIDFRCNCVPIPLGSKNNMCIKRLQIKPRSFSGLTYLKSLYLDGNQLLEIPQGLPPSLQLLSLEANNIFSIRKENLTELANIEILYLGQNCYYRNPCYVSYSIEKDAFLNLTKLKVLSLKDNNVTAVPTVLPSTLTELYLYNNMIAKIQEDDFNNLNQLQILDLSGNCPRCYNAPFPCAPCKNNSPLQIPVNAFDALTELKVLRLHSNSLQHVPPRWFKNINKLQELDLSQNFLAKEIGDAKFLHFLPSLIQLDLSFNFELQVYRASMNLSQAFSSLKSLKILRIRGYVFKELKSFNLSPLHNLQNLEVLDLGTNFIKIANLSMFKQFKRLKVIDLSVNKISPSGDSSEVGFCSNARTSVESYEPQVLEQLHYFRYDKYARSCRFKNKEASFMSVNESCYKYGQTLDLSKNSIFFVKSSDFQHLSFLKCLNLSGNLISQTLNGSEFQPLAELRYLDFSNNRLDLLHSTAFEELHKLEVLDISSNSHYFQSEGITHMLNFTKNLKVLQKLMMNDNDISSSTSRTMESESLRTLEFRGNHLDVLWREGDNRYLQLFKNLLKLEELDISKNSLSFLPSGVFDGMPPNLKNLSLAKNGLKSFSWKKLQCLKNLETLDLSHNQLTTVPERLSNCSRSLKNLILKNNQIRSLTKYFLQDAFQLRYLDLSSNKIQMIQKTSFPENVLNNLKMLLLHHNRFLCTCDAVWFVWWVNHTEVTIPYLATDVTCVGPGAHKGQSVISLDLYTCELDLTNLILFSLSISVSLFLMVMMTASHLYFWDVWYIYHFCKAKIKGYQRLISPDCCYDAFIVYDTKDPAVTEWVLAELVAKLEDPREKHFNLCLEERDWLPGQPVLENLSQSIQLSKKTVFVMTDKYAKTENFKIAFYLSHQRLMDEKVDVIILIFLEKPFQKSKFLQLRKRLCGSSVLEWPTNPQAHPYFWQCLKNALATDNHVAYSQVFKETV
Assay: HEK Cell Assay (TLR7/NFKb HEK reporter cells, Steady-Glo)
Format: cell-based
Conditions: compound 30 min, then R*48 agonist 5 hours, Steady-Glo readout, read-out: Potency
Protocol: Example 32: HEK Cell Assay
Into 384 CulturePlates (Corning 3707) was placed 5000 c/w of TLR7/NFKb HEK cells in 30 uL DMEM without Phenil red (gibco #31053) and 10% i.a. FCS and 2 mM L-ZGLutamin. The cells were incubated for 24 h at 37 degrees Celsius, 10% carbon dioxide and 90% relative humidity, 3 uL of controls, standards, and compounds were dispensed to wells, incubated for 30 min then 3 uL of R*48 agonist in 20 mM Hepes was added. After incubation for 5 hours, it was allowed to stand at room temperature for 15 min, 10 uL of Steady-Glo substrate reagent was added and shake assay plate for 5 min at 1500 rpm. The assay plate was allowed to sit for 30 min at room temperature and then read plate on EnVision.

| SMILES | IC50 |
| --- | --- |
| COCCN[C@@H]1C[C@H](C)C[C@@H](c2ccc(C#N)c3nccnc23)C1 (relative stereo) [Compound 134, 8-[(1,trans-3,cis-5)-3-[(2-methoxyethyl)amino]-5-methylcyclohexyl]quinoxaline-5-carbonitrile] | 1000 to 20000 nM |
| CC1CC(c2ccc(C(F)(F)F)c3ncccc23)CN(C(=O)CCN2CCN(C)CC2)C1 (stereo in doubt) [Compound 45, 3-(4-Methyl-piperazin-1-yl)-1-[(3S,5S)-3-methyl-5-(8-trifluoromethyl-quinolin-5-yl)-piperidin-1-yl]-propan-1-one] | 1000 to 20000 nM |
| CC1CC(c2ccc(C#N)c3ncccc23)CN(C(=O)CC2CCN(C)CC2)C1 (stereo in doubt) [Compound 55, 5-{(3S,5R)-5-Methyl-1-[2-(1-methyl-piperidin-4-yl)-acetyl]-piperidin-3-yl}-quinoline-8-carbonitrile] | < 1000 nM |
| C[C@@H]1C[C@H](c2ccc(C#N)c3ncccc23)CN(C(=O)CC2CCN(C)CC2)C1 [Compound 1] | < 1000 nM |
| C[C@@H]1CC(c2ccc(C#N)c3ncccc23)CN(C(=O)CC2CCN(C)CC2)C1 (stereo partly shown) [Compound 2] | < 1000 nM |
| CC1CC(c2ccc(C(F)(F)F)c3ncccc23)CN(C(=O)CC2CCN(C)CC2)C1 (stereo not shown) [Compound 3, 2-(1-Methyl-piperidin-4-yl)-1-[3-methyl-5-(8-trifluoromethyl-quinolin-5-yl)-piperidin-1-yl]-ethanone] | < 1000 nM |
| CC1CC(c2ccc(C(F)(F)F)c3ncccc23)CN(C(=O)CCN2CCN(C)CC2)C1 (stereo not shown) [Compound 11, 3-(4-Methyl-piperazin-1-yl)-1-[3-methyl-5-(8-trifluoromethyl-quinolin-5-yl)-piperidin-1-yl]-propan-1-one] | 1000 to 20000 nM |
| C[C@@H]1CC(c2ccc(C(F)(F)F)c3ncccc23)CN(C(=O)CCn2cccn2)C1 (stereo partly shown) [Compound 12] | > 20000 nM |
| CC1C[C@@H](c2ccc(C(F)(F)F)c3ncccc23)CN(C(=O)CN2CCOCC2)C1 (stereo partly shown) [Compound 17] | > 20000 nM |
| CC1CC(c2ccc(C(F)(F)F)c3ncccc23)CN(C(=O)CC2CC3CCC(C2)N3C)C1 (stereo not shown) [Compound 18, 2-(8-Methyl-8-aza-bicyclo[3.2.1]oct-3-yl)-1-[3-methyl-5-(8-trifluoromethyl-quinolin-5-yl)-piperidin-1-yl]-ethanone] | < 1000 nM |
| CC1C[C@@H](c2ccc(C#N)c3ncccc23)CN(C(=O)Cc2cccnc2)C1 (stereo partly shown) [Compound 21] | > 20000 nM |
| CC1CC(c2ccc(Cl)c3ncccc23)CN(C(=O)CC2CCN(C)CC2)C1 (stereo not shown) [Compound 22, 1-[3-(8-Chloro-quinolin-5-yl)-5-methyl-piperidin-1-yl]-2-(1-methyl-piperidin-4-yl)-ethanone] | < 1000 nM |
| CC1CC(c2ccc(C#N)c3ncccc23)CN(C(=O)CCC2CCN(C)CC2)C1 (stereo not shown) [Compound 23] | < 1000 nM |
| CC1C[C@H](c2ccc(C#N)c3ncccc23)CN(C(=O)CCc2cccnc2)C1 (stereo partly shown) [Compound 25] | 1000 to 20000 nM |
| CC1C[C@H](c2ccc(C#N)c3ncccc23)CN(C(=O)CC(F)(F)F)C1 (stereo partly shown) [Compound 27] | > 20000 nM |
| C[C@@H]1C[C@H](c2ccc(C#N)c3ncccc23)CN(C(=O)CC2CCN(C)C2)C1 (stereo partly drawn) [Compound 35, cis-5-Methyl-1-[2-(1-methyl-pyrrolidin-3-yl)-acetyl]-piperidin-3-yl-quinoline-8-carbonitrile] | < 1000 nM |
| C[C@@H]1C[C@H](c2ccc(C(F)(F)F)c3ncccc23)CN(C(=O)CC2CCN(C)CC2)C1 [Compound 42, 2-(1-Methyl-piperidin-4-yl)-1-[(3R,5R)-3-methyl-5-(8-trifluoromethyl-quinolin-5-yl)-piperidin-1-yl]-ethanone] | < 1000 nM |

| SMILES | IC50 |
| --- | --- |
| C[C@H]1C[C@@H](c2ccc(C(F)(F)F)c3ncccc23)CN(C(=O)CC2CCN(C)CC2)C1 [Compound 43, 2-(1-Methyl-piperidin-4-yl)-1-[(3S,5S)-3-methyl-5-(8-trifluoromethyl-quinolin-5-yl)-piperidin-1-yl]-ethanone] | 1000 to 20000 nM |
| C[C@@H]1C[C@H](c2ccc(C(F)(F)F)c3ncccc23)CN(C(=O)CCN2CCN(C)CC2)C1 [Compound 44, 3-(4-Methyl-piperazin-1-yl)-1-[(3R,5R)-3-methyl-5-(8-trifluoromethyl-quinolin-5-yl)-piperidin-1-yl]-propan-1-one] | < 1000 nM |
| CC(C)N1CCC(CC(=O)N2C[C@H](C)C[C@H](c3ccc(C#N)c4ncccc34)C2)CC1 [Compound 46, 5-{(3R,5R)-1-[2-(1-Isopropyl-piperidin-4-yl)-acetyl]-5-methyl-piperidin-3-yl}-quinoline-8-carbonitrile] | < 1000 nM |
| CC(C)N1CCC(CC(=O)N2C[C@@H](C)C[C@@H](c3ccc(C#N)c4ncccc34)C2)CC1 [Compound 47, 5-{(3S,5S)-1-[2-(1-Isopropyl-piperidin-4-yl)-acetyl]-5-methyl-piperidin-3-yl}-quinoline-8-carbonitrile] | 1000 to 20000 nM |
| COC(=O)CCN1CC(C)CC(c2ccc(C#N)c3ncccc23)C1 (stereo not shown) [Compound 48, 3-[3-(8-Cyano-quinolin-5-yl)-5-methyl-piperidin-1-yl]-propionic acid methyl ester] | > 20000 nM |
| CC1CC(c2ccc(C#N)c3ncccc23)CN(CCC(N)=O)C1 (stereo not shown) [Compound 49, 3-[3-(8-Cyano-quinolin-5-yl)-5-methyl-piperidin-1-yl]-propionamide] | > 20000 nM |
| CNC(=O)CCN1CC(C)CC(c2ccc(C#N)c3ncccc23)C1 (stereo not shown) [Compound 50] | > 20000 nM |
| CC1CC(c2ccc(C#N)c3ncccc23)CN(CC2CCN(C)C2)C1 (stereo not shown) [Compound 51] | < 1000 nM |
| CC1CC(c2ccc(C#N)c3ncccc23)CN(CC2CCN(C)CC2)C1 (stereo not shown) [Compound 52] | < 1000 nM |
| C[C@@H]1C[C@@H](c2ccc(C#N)c3ncccc23)CN(C(=O)CC2CCN(C)CC2)C1 [Compound 54, 5-{(3S,5R)-5-Methyl-1-[2-(1-methyl-piperidin-4-yl)-acetyl]-piperidin-3-yl}-quinoline-8-carbonitrile] | < 1000 nM |
| C[C@H]1C[C@@H](c2ccc(C#N)c3ncccc23)CN(C(=O)CC2CCN(C)CC2)C1 [Compound 56] | 1000 to 20000 nM |
| CC1CC(c2ccc(C(F)(F)F)c3ncccc23)CN(c2ccon2)C1 (stereo not shown) [Compound 57, 5-(1-Isoxazol-3-yl-5-methyl-piperidin-3-yl)-8-trifluoromethyl-quinoline] | > 20000 nM |
| CC1CC(c2ccc(C(F)(F)F)c3ncccc23)CN(c2cnn(C)c2)C1 (stereo not shown) [Compound 58, 5-[5-Methyl-1-(1-methyl-1H-pyrazol-4-yl)-piperidin-3-yl]-8-trifluoromethyl-quinoline] | 1000 to 20000 nM |
| CC1CC(c2ccc(C(F)(F)F)c3ncccc23)CN(c2ncco2)C1 (stereo not shown) [Compound 59, 5-(5-Methyl-1-oxazol-2-yl-piperidin-3-yl)-8-trifluoromethyl-quinoline] | 1000 to 20000 nM |
| C[C@@H]1C[C@@H](c2ccc(C#N)c3ncccc23)CN(C(=O)[C@@H](N)C2CC2)C1 [Compound 60, trans-1-((S)-2-Amino-2-cyclopropyl-acetyl)-5-methyl-piperidin-3-yl-quinoline-8-carbonitrile] | 1000 to 20000 nM |
| C[C@@H]1C[C@H](c2ccc(C#N)c3ncccc23)CN(C(=O)[C@@H](N)C2CC2)C1 [Compound 61] | 1000 to 20000 nM |
| C[C@@H]1C[C@H](c2ccc(C#N)c3ncccc23)CN(C(=O)C[C@@H]2[C@H]3CN(C)C[C@@H]23)C1 [Compound 78] | < 1000 nM |
